# Legend:
# PC-3 = test: Antiproliferative activity against human PC-3 cells assessed as inhibition of cell proliferation measured after 72 hrs by MTT assay; type: functional, cell-based; settings: PC-3, 72 h
# ECa-109 cell line = test: Antiproliferative activity against human ECa-109 cell line cells assessed as inhibition of cell proliferation measured after 72 hrs by MTT assay; type: functional, cell-based; settings: ECa-109, 72 h
# DU-145 = test: Antiproliferative activity against human DU-145 cell line cells assessed as inhibition of cell proliferation measured after 72 hrs by MTT assay; type: functional, cell-based; settings: DU-145, 72 h
# MGC-803 = test: Antiproliferative activity against human MGC-803 cell line cells assessed as inhibition of cell proliferation measured after 72 hrs by MTT assay; type: functional, cell-based; settings: MGC-803, 72 h
# MCF7 = test: Antiproliferative activity against human MCF7 cell line cells assessed as inhibition of cell proliferation measured after 72 hrs by MTT assay; type: functional, cell-based; settings: MCF7, 72 h
# [1] = Cytotoxicity against human WPMY-1 cell line cells assessed as inhibition of cell proliferation measured after 72 hrs by MTT assay; type: cell-based; settings: WPMY-1, 72 h
SMILES,IC50 (PC-3) [µM],IC50 (DU-145) [µM],IC50 (MGC-803) [µM],IC50 (MCF7) [µM],IC50 (ECa-109 cell line) [µM],IC50 [1] [µM]
Cc1[nH]c2ccccc2c1CCNC(=O)c1ccc(C(=O)NO)cc1,> 20,> 20,> 20,> 20,> 20,> 20
COc1ccc(/C=N/NC(=S)Nc2ccc(C(=O)NCCc3c[nH]c4ccc(OC)cc34)cc2)nc1,0.093,4.22,8.92,1.96,9.12,> 20
Cc1[nH]c2ccccc2c1CCNC(=O)c1ccc(NC(=S)N/N=C/c2ccccn2)cc1,0.091,3.63,8.64,10.3,3.46,13.1
Cc1ccc(/C=N/NC(=S)NC2CCC(C(=O)NCCc3c[nH]c4ccccc34)CC2)nc1 (stereo unspecified),2.22,2.22,4.58,8.13,14.1,1.56
C/C(=N\NC(=S)Nc1ccc(C(=O)NCCc2c(C)[nH]c3ccccc23)cc1)c1ccccn1,0.707,4.02,6.24,6.42,6,3.55
Cc1[nH]c2ccccc2c1CCNC(=O)c1ccc(NC(=S)N/N=C/c2ccc(C(=O)O)cn2)cc1,1.6,5.66,> 20,> 20,16.6,3.22
COc1ccc2[nH]cc(CCNC(=O)c3ccc(NC(=S)N/N=C(\C)c4ccccn4)cc3)c2c1,0.947,5.88,4.02,5.38,6.48,4.51
NC(=S)N/N=C/c1ncccc1N [TRIAPINE],–,–,–,–,–,4.96
CN(C(=S)NN=C(c1ccccn1)c1ccccn1)C1CCCCC1,–,–,–,–,–,0.711
Cc1ncc(CO)c(/C=N/NC(=O)c2ccc(C(=O)NCCc3c(C)[nH]c4ccccc34)cc2)c1O,> 20,> 20,> 20,> 20,> 20,> 20
Cc1[nH]c2ccccc2c1CCNC(=O)c1ccc(NC(=S)N/N=C/c2ccccc2O)cc1,5.32,14.5,> 20,> 20,9.5,2.87
Cc1ccc(/C=N/NC(=S)NCCc2c[nH]c3ccccc23)nc1,0.601,3.13,5.66,9.1,4.51,2.33
C/C(=N\Nc1ccc(C(=O)NCCc2c(C)[nH]c3ccccc23)cn1)c1ccccn1,0.406,2.05,4.22,0.871,0.664,0.45
Cc1[nH]c2ccccc2c1CCNC(=O)c1ccc(NC(=S)N/N=C2/C(=O)Nc3ccccc32)cc1,17,18.5,> 20,> 20,> 20,> 20

# Continued, in another order:
IC50 (PC-3) [µM],IC50 (DU-145) [µM],IC50 (MGC-803) [µM],IC50 (MCF7) [µM],SMILES,IC50 (ECa-109 cell line) [µM],IC50 [1] [µM]
0.241,1.46,7.02,7.11,Cc1ccc(/C=N/NC(=S)Nc2ccc(C(=O)NCCc3c[nH]c4ccccc34)cc2)nc1,3.94,12.5
0.084,4.08,6.33,6.28,COc1ccc(/C=N/NC(=S)Nc2ccc(C(=O)NCCc3c(C)[nH]c4ccccc34)cc2)nc1,5.49,> 20
2.48,15.2,> 20,> 20,COc1ccc2[nH]cc(CCNC(=O)c3ccc(NC(=S)N/N=C/c4ccc(O)cn4)cc3)c2c1,> 20,> 20
1.5,17,> 20,> 20,Cc1[nH]c2ccccc2c1CCNC(=O)c1ccc(NC(=S)N/N=C/c2ccc(O)cn2)cc1,16.2,> 20
1.42,1.2,4.85,8.62,Cc1ccc(/C=N/NC(=S)NCc2ccc(C(=O)NCCc3c[nH]c4ccccc34)cc2)nc1,18.5,1.09
0.081,1.06,3.12,4.02,Cc1ccc(/C=N/NC(=S)Nc2ccc(C(=O)NCCc3c[nH]c4ccc(C)cc34)cc2)nc1,1.63,10.9
0.061,3.22,10.4,5.33,COc1ccc2[nH]cc(CCNC(=O)c3ccc(NC(=S)N/N=C/c4ccc(C)cn4)cc3)c2c1,5.75,18.1
0.512,6.15,7.59,8.32,Cc1ccc(/C=N/NC(=S)Nc2ccc(C(=O)NCCc3c[nH]c4ccccc34)cn2)nc1,12.5,2.5
0.121,0.925,2.67,7.28,Cc1ccc(/C=N/NC(=S)Nc2ccc(C(=O)NCCc3c[nH]c4ccc(Cl)cc34)cc2)nc1,2.4,7.09
0.133,4.13,5.35,6.49,COc1ccc2[nH]cc(CCNC(=O)c3ccc(NC(=S)N/N=C/c4ccccn4)cc3)c2c1,5.03,12.3
0.454,5.22,11.1,10.2,Cc1[nH]c2ccccc2c1CCNC(=O)c1ccc(NC(=S)N/N=C/c2ccc(Cl)cn2)cc1,14.3,1.78
0.322,1.9,> 20,> 20,Cc1[nH]c2ccccc2c1CCNC(=O)c1ccc(NC(=S)N/N=C/c2ccc(Br)cn2)cc1,13.9,1.78

# From ChEMBL document CHEMBL4732091, “Design, synthesis and biological evaluation of novel thiosemicarbazone-indole derivatives targeting prostate cancer cells” (Eur J Med Chem, 2021)
